This is an account of results in BindingDB's records for patent US20260069571 (Redx Pharma, 2026).

Molecules are shown by their SMILES. Bounds are passed on as bounds.

Assay [1] concerns the target T1, Discoidin domain-containing receptor 2 (Homo sapiens, UniProt Q16832).
T1 sequence (Q16832 whole entry): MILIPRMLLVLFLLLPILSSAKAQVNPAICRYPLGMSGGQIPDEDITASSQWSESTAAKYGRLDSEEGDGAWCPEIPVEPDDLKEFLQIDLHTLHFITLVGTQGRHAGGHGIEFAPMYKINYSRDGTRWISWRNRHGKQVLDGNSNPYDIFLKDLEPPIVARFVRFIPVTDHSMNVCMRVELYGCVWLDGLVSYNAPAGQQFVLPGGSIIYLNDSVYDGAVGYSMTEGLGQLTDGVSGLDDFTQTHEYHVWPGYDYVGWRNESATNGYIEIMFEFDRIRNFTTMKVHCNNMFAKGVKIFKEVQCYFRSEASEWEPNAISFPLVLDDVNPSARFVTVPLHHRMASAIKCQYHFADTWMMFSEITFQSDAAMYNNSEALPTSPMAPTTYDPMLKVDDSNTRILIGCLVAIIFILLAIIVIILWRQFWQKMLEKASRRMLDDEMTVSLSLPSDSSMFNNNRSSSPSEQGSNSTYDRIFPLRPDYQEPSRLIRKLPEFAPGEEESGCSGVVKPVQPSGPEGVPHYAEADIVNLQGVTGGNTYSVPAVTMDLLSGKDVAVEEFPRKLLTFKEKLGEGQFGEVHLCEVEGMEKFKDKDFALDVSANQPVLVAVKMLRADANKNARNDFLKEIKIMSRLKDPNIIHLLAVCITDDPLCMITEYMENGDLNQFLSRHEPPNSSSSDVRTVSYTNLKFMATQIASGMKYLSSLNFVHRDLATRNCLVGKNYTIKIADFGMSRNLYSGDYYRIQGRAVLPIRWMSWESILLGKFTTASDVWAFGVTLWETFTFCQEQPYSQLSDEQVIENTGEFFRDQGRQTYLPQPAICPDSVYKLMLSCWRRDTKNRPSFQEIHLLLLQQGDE
As to the kind of experiment: DDR1 and DDR2 Biochemical Assay. As to the method: (§1) The capacity of compounds to bind to DDR1 and DDR2 was quantified using a LanthaScreen Eu Kinase Binding Assay. Recombinant human DDR1 (2.5 nM; aa440-876 containing a GST tag) and DDR2 (1.75 nM; aa427-855 containing a GST tag) were diluted in assay buffer (50 mM HEPES pH7.3, 10 mM MgCl2, 1 mM EGTA and 0.01% Tween) with various concentrations of compound in a 384-well plate and a volume of 5 uL. After a 30-minute incubation at room temperature, 2.5 uL of Eu-anti GST antibody (diluted to 1 nM in assay buffer) plus Kinase Tracer 178 (diluted in assay buffer to 5 nM for DDR1 and 10 nM for DDR2) were added to the plate. Following 60-minute incubation at room temperature, time-resolved fluorescence was measured on a BMG Labtech PHERAstar plate reader. DMSO (1%) and reference compound (1 μM) were used to generate the Max and Min assay signals, respectively. Data was analysed using a four-parameter logistic model to calculate IC50 values, with at least two independent replicates were performed for each compound.

Assay [2] has as its target Epithelial discoidin domain-containing receptor 1 (Homo sapiens, UniProt Q08345). Put plainly: DDR1 and DDR2 Biochemical Assay. How it is done: as §1

Chain of Epithelial discoidin domain-containing receptor 1 (Q08345 whole entry, the tested form may be a part): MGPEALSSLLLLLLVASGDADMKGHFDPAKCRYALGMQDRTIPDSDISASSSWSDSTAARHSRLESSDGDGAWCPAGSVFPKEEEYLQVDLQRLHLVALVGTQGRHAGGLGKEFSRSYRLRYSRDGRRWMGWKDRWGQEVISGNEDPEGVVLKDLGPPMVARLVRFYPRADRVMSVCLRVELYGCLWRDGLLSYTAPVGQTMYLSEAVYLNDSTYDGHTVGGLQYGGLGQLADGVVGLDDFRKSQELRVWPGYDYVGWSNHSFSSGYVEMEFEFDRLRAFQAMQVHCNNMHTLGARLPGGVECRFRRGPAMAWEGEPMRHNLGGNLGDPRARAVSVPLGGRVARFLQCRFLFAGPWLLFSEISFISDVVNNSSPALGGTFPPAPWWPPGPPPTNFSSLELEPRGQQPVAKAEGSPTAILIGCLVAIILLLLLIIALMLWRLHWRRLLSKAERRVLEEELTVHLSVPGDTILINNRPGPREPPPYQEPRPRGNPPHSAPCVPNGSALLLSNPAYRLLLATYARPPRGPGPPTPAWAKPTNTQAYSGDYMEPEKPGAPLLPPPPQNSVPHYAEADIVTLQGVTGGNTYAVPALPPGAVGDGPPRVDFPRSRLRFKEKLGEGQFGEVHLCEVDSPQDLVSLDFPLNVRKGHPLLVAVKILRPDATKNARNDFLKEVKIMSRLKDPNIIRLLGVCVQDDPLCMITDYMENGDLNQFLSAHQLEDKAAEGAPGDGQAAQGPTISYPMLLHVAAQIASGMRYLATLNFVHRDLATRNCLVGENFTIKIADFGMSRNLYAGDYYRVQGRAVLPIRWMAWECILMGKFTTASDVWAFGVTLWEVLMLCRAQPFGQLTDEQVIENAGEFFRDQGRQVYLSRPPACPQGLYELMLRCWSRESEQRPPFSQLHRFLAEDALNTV

For `Cc1n[nH]c2cc(Nc3cccc4c3C(=O)N(CC(=O)NCC(F)(F)F)C4)ccc12` [US20260069571, Example 6], the half-inhibitory concentration (IC50) in assay [1] and in assay [2] was under 10 nM in each case. In assay [2], `Cn1ncc2cc(Nc3cccc4c3C(=O)N(CC(=O)N3CCCC(C(F)(F)F)C3)C4)ccc21` (stereo not drawn) [US20260069571, Example 12] registered a half-maximal inhibitory concentration (IC50) of under 10 nM.
